{"source": "patent US20100119525A1", "about": "(priority 2005, published 2010)", "key": {"[1]": {"conditions": "in vivo, cited from earlier work"}, "[2]": {"test_system": "C57B16 mice", "conditions": "in vivo; cited from earlier work"}, "[3]": {"target": "NPC1L1 (Homo sapiens, UniProt Q9UHC9)", "sequence (Q9UHC9 22-1359)": "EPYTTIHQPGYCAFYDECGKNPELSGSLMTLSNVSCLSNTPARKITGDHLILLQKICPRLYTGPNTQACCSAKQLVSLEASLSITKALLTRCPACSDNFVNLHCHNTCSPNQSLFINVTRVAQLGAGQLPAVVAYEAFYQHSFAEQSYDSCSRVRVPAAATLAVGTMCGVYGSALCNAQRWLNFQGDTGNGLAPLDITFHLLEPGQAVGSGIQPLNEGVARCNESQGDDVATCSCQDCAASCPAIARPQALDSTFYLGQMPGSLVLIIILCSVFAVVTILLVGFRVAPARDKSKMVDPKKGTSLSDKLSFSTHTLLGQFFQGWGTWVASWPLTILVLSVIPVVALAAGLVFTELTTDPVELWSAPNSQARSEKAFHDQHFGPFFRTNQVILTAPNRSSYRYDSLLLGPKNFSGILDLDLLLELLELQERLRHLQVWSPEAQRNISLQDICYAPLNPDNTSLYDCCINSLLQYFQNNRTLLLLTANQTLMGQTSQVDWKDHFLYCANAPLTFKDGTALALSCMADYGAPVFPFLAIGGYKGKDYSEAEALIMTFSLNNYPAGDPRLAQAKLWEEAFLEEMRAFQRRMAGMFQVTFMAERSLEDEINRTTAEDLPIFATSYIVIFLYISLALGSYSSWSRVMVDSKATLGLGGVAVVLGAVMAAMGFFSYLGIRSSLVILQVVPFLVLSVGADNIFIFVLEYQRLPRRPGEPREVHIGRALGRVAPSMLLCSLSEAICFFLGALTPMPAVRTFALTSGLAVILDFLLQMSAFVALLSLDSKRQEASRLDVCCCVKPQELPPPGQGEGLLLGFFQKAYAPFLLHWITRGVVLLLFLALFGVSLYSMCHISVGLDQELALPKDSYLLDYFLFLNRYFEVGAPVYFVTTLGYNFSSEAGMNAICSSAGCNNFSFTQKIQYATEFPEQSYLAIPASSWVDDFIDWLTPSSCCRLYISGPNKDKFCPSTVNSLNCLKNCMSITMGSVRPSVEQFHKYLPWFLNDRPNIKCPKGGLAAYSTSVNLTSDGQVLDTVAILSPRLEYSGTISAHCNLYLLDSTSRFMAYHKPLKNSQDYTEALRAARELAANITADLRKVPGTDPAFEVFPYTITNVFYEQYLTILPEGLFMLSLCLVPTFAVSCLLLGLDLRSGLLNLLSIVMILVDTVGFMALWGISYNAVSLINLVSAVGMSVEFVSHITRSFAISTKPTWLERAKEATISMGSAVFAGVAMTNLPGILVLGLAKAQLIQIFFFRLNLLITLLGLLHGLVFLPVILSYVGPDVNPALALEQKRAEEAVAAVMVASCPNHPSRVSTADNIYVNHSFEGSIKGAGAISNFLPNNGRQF", "conditions": "prokaryotic screening method"}}}
{"molecule": "ezetimibe-glucuronide", "values": [{"measurement": "estimated terminal half-life", "setting": "[1]; po", "value": "approximately 22 hours"}]}
{"molecule": "COc1ccc2[nH]cc(CCNC(C)=O)c2c1", "note": "[melatonin]", "values": [{"measurement": "life of the C57B16 mouse", "setting": "[2]", "value": "871 ± 30.5", "unit": "days"}]}
{"molecule": "CCCC(=O)C1(c2ccccc2)CCNCC1.Cl", "values": [{"measurement": "NPC1L1 inhibitor identification", "setting": "[3]", "value": "inhibitor was identified"}]}
{"molecule": "O=C1[C@H](CC[C@H](O)c2ccc(F)cc2)[C@@H](c2ccc(O)cc2)N1c1ccc(F)cc1", "note": "[Zetia®, 1-(4-fluorophenyl)-(3R)-[3-(4-fluorophenyl)-3(S)-hydroxypropyl]-4(S)-(4-hydroxyphenyl)-2-azetidinone]", "values": [{"measurement": "extensively metabolised to the pharmacologically active ezetimibe-glucuronide", "setting": "[1]; po", "value": "> 80", "unit": "%"}, {"measurement": "accumulation", "setting": "[1]", "value": "~2", "unit": "fold"}, {"measurement": "time at which total Zetia concentrations reach a maximum", "setting": "[1]", "value": "1 to 2", "unit": "h"}]}
